# Assays:
# [1] = molecular target: T1, human TRPV1 receptor (hTRPV1) (Homo sapiens (Human), UniProt Q8NER1); test: Acid activation assay (pH 5.0, FLIPR intracellular Ca2+); assay type: cell-based; details: Table 1, 37.5 μM antagonist, percentage of the maximal pH 5.0-induced response remaining; for remaining activity at 37.5 µM: read-out: hTRPV1 H+ (max % remain)
# Experimental: Dulbecco's modified Eagle's medium (DMEM) with 4.5 mg/mL D-glucose, fetal bovine serum, L-glutamine, and 2-morpholinoethanesulfonic acid (MES) were purchased from Sigma-Aldrich Co. (St. Louis, Mo.). Dulbecco's phosphate-buffered saline (DPBS) with Ca^2+, Mg^2+, and 1 mg/mL D-glucose (pH 7.4), Geneticin®, 0.25% trypsin-1 mM EDTA, and penicillin-streptomycin were purchased from Invitrogen Corp. (Carlsbad, Calif.). The FLIPR® Calcium 4 assay kit was purchased from Molecular Devices (Sunnyvale, Calif.).
# The cDNAs for the human TRPV1 receptor (hTRPV1) were isolated by reverse transcriptase-polymerase chain reaction (RT-PCR) from human small intestine poly A+RNA supplied by Clontech (Palo Alto, Calif.) using primers designed surrounding the initiation and termination codons identical to the published sequences (Hayes et al. Pain 2000, 88, 205-215). The resulting cDNA PCR products were subcloned into pCIneo mammalian expression vector (Promega) and fully sequenced using fluorescent dye-terminator reagents (Prism, Perkin-Elmer Applied Biosystems Division) and a Perkin-Elmer Applied Biosystems Model 373 DNA sequencer or Model 310 genetic analyzer. Expression plasmids encoding the hTRPV1 cDNA were transfected individually into 1321N1 human astrocytoma cells using Lipofectamine. Forty-eight hours after transfection, the neomycin-resistant cells were selected with growth medium containing 800 μg/mL Geneticin (Gibco BRL). Surviving individual colonies were isolated and screened for TRPV1 receptor activity. Cells expressing recombinant homomeric TRPV1 receptors were maintained at 37° C. in DMEM containing 4 mM L-glutamine, 300 μg/mL G418 (Cal-biochem) and 10% fetal bovine serum under a humidified 5% CO2 atmosphere.
# The functional activity of compounds at the TRPV1 receptor was determined by measurement of intracellular Ca^2+ levels ([Ca^2+]i) using the Fluorescence Imaging Plate Reader (FLIPR)^TETRA®. All compounds were tested over a 12-point one-half-log concentration range. Compound stocks, 10 mM, were prepared in DMSO, and diluted serially across a 384-well plate using a Bravo BenchCel workstation (Agilent Technologies, Santa Clara, Calif.).
# On the day of the experiment growth medium was removed, and the no-wash FLIPR® Calcium-4 dye (λEX=470-495 nm, λEM=515-575 nm) was added to each well using the Multidrop® dispenser. Cells were incubated for 90-120 minutes in the dark at 25° C. Test compounds were dissolved in DMSO, and plates were prepared using an Agilent Bravo workstation (Agilent Technologies Inc., Santa Clara, Calif.). Compounds were added to the cells 3 minutes prior to the addition of a pH 5.0 solution. Reagents were delivered at a rate of 40 μL/sec, and the final assay volume was 80 μL. Acidic pH solutions were prepared by titration of DPBS/MES with 1 N HCl. The intensity of the fluorescence was captured and digitally transferred to an interfaced PC.
# [2] = molecular target: T1, human TRPV1 receptor (hTRPV1); test: Capsaicin activation assay (FLIPR intracellular Ca2+); assay type: cell-based; details: Table 1; inhibition of capsaicin-induced intracellular Ca2+ increase, HEK293 cells expressing human TRPV1; read-out: hTRPV1 cap IC50
# Experimental: Dulbecco's modified Eagle medium (D-MEM) (with 4.5 mg/mL glucose) and fetal bovine serum were obtained from Hyclone Laboratories, Inc. (Logan, Utah). Dulbecco's phosphate-buffered saline (D-PBS) (with 1 mg/mL glucose and 3.6 mg/l Na pyruvate, without phenol red), L-glutamine, hygromycin B, and Lipofectamine® were obtained from Life Technologies (Grand Island, N.Y.). G418 sulfate was obtained from Calbiochem-Novabiochem Corp. (San Diego, Calif.). Capsaicin (8-methyl-N-vanillyl-6-nonenamide) was obtained from Sigma-Aldrich, Co. (St. Louis, Mo.). Fluo-4 AM (N-[4-[6-[(acetyloxy)methoxy]-2,7-difluoro-3-oxo-3H-xanthen-9-yl]-2-[2-[2-[bis[2-[(acetyloxy)methoxy]-2-oxyethyl]amino]-5-methyl phenoxy]ethoxy]phenyl]-N-[2-[(acetyloxy)methoxy]-2-oxyethyl]-glycine, (acetyloxy)methyl ester) was purchased from Molecular Probes (Eugene, Oreg.). […]
# The functional activity of compounds at the TRPV1 receptor was determined by measurement of intracellular Ca^2+ levels ([Ca^2+]i) using the Fluorescence Imaging Plate Reader (FLIPR)^TETRA®. All compounds were tested over a 12-point one-third-log concentration range. Compound stocks, 10 mM, were prepared in DMSO, and diluted serially across a 384-well plate using a Bravo BenchCel workstation (Agilent Technologies, Santa Clara, Calif.). A stock concentration of capsaicin (10 mM) was made in DMSO, and diluted in D-PBS to a final concentration of 200 nM (4×). On the day prior to the experiment, recombinant HEK293 cells that stably express human TRPV1 were removed from tissue culture flasks and plated in growth medium into black-walled clear-bottom 384-well Biocoat™ poly-D-lysine assay plates (BD Biosciences, Bedford, Mass.) using a Multidrop® dispenser (ThermoScientific, Waltham, Mass.). On the day of the experiment, growth medium was removed, and the no-wash FLIPR® Calcium-4 dye (λEX=470-495 nm, λEM=515-575 nm; Molecular Devices, Sunnyvale, Calif.) was added to each well using the Multidrop® dispenser. Cells were incubated for 90-120 minutes in the dark at room temperature. Test compounds were added to the cells 3 minutes prior to the addition of 200 nM capsaicin (4×), and the final assay volume was 80 μL. Fluorescence readings were made at 1 to 5 second intervals over the course of the experimental run. The peak increase in relative fluorescence units (minus baseline) was calculated, and expressed as a percentage of the 50 nM capsaicin (control) response.
# T1 sequence (Q8NER1 whole entry): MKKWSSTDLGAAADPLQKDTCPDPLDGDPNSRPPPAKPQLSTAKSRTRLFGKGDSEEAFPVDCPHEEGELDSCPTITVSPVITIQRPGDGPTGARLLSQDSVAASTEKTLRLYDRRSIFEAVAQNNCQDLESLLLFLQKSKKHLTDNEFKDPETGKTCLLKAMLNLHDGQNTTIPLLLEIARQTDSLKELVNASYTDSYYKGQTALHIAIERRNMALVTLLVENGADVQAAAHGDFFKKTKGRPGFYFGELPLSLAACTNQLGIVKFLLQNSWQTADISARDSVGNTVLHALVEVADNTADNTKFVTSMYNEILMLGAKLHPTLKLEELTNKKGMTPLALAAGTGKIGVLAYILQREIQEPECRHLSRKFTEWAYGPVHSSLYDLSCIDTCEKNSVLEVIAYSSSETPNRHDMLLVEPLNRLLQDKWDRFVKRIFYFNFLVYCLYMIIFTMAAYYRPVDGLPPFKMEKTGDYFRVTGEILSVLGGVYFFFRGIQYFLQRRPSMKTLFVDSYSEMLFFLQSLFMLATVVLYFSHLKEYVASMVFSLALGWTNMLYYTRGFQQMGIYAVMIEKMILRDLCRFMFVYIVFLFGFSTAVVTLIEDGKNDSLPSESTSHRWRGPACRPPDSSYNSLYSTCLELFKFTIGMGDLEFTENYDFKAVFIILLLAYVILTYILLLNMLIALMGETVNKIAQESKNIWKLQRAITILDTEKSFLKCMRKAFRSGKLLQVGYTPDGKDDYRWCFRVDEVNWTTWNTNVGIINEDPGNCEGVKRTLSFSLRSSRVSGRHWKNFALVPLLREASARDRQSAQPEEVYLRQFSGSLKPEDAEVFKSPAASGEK
remaining activity at 37.5 µM [1] [%],hTRPV1 H+ (max % remain) [1] [%],IC50 [2] [nM],SMILES
53,–,–,"O=C(Nc1cccc2[nH]ncc12)N[C@H]1CC[C@@H](c2ccccn2)C1 (relative stereo) [Example 38, 1-(1H-indazol-4-yl)-3-[cis-3-(pyridin-2-yl)cyclopentyl]urea]"
33,–,–,"O=C(Nc1cccc2[nH]ncc12)N[C@H]1CC[C@H](c2ccccn2)C1 (relative stereo) [Example 39, 1-(1H-indazol-4-yl)-3-[trans-3-(pyridin-2-yl)cyclopentyl]urea]"
–,53,8640,"O=C(Nc1cccc2[nH]ncc12)N[C@H]1CC[C@@](O)(c2ccccc2)C1 (relative stereo) [Example 58, 1-[(trans)-3-hydroxy-3-phenylcyclopentyl]-3-(1H-indazol-4-yl)urea]"
18,–,–,"Cc1csc([C@H]2CC[C@H](NC(=O)Nc3cccc4[nH]ncc34)C2)n1 (relative stereo) [Example 119, 1-(1H-indazol-4-yl)-3-[(trans)-3-(4-methyl-1,3-thiazol-2-yl)cyclopentyl]urea]"
6,–,–,"O=C(Nc1cccc2[nH]ncc12)N[C@@H]1CC[C@@H](c2nc(C(F)(F)F)cs2)C1 (relative stereo) [Example 129, 1-(1H-indazol-4-yl)-3-{(1R*,3R*)-3-[4-(trifluoromethyl)-1,3-thiazol-2-yl]cyclopentyl}urea]"
5,–,–,"O=C(Nc1cccc2[nH]ncc12)N[C@@H]1CC[C@H](c2nc(C(F)(F)F)cs2)C1 (relative stereo) [Example 130, 1-(1H-indazol-4-yl)-3-{(1R*,3S*)-3-[4-(trifluoromethyl)-1,3-thiazol-2-yl]cyclopentyl}urea]"
54,–,–,"Cc1csc([C@@H]2CC[C@H](NC(=O)Nc3cccc4[nH]ncc34)C2)n1 (single isomer, unassigned) [Example 120, 1-(1H-indazol-4-yl)-3-[(1S*,3R*)-3-(4-methyl-1,3-thiazol-2-yl)cyclopentyl]urea]"
10,–,–,"Cc1csc([C@H]2CC[C@@H](NC(=O)Nc3cccc4[nH]ncc34)C2)n1 (single isomer, unassigned) [Example 121, 1-(1H-indazol-4-yl)-3-[(1R*,3S*)-3-(4-methyl-1,3-thiazol-2-yl)cyclopentyl]urea]"
68,–,20500,"Cc1coc([C@@H]2CC[C@H](NC(=O)Nc3cccc4[nH]ncc34)C2)n1 (single isomer, unassigned) [Example 122, 1-(1H-indazol-4-yl)-3-[(1S*,3R*)-3-(4-methyl-1,3-oxazol-2-yl)cyclopentyl]urea]"
29,–,1110,"Cc1coc([C@H]2CC[C@@H](NC(=O)Nc3cccc4[nH]ncc34)C2)n1 (single isomer, unassigned) [Example 123, 1-(1H-indazol-4-yl)-3-[(1R*,3S*)-3-(4-methyl-1,3-oxazol-2-yl)cyclopentyl]urea]"
41,–,–,"Cc1cc2c(NC(=O)N[C@H]3CC[C@@H](c4ncc(C)o4)C3)c(F)ccc2cn1 (stereo in doubt) [Example 125, 1-(6-fluoro-3-methylisoquinolin-5-yl)-3-[(1S*,3R*)-3-(5-methyl-1,3-oxazol-2-yl)cyclopentyl]urea]"
23,–,–,"Cc1cnc([C@@H]2CC[C@H](NC(=O)Nc3cccc4[nH]ncc34)C2)o1 (stereo in doubt) [Example 126, 1-(1H-indazol-4-yl)-3-[(1S*,3R*)-3-(5-methyl-1,3-oxazol-2-yl)cyclopentyl]urea]"
54,–,–,"Cc1cc2c(NC(=O)N[C@@H]3CC[C@H](c4ncc(C)o4)C3)c(F)ccc2cn1 (stereo in doubt) [Example 127, 1-(6-fluoro-3-methylisoquinolin-5-yl)-3-[(1R*,3S*)-3-(5-methyl-1,3-oxazol-2-yl)cyclopentyl]urea]"
54,–,–,"Cc1cnc([C@H]2CC[C@@H](NC(=O)Nc3cccc4[nH]ncc34)C2)o1 (stereo in doubt) [Example 128, 1-(1H-indazol-4-yl)-3-[(1R*,3S*)-3-(5-methyl-1,3-oxazol-2-yl)cyclopentyl]urea]"
2,–,4,"O=C(Nc1cccc2c1C[C@H](O)CC2)N[C@H]1CC[C@H](c2ccccc2)C1 [Compound A, 1-[(7R)-7-hydroxy-5,6,7,8-tetrahydronaphthalen-1-yl]-3-[(1S,3S)-3-phenylcyclopentyl]urea, reference compound]"
1,–,6,"O=C(Nc1cccc2c1C[C@@H](O)CC2)N[C@H]1CC[C@@H](c2ccccc2)C1 [Compound B, 1-[(7S)-7-hydroxy-5,6,7,8-tetrahydronaphthalen-1-yl]-3-[(1S,3R)-3-phenylcyclopentyl]urea, reference compound]"
2,–,5,"O=C(Nc1cccc2c1C[C@@H](O)CC2)N[C@@H]1CC[C@H](c2ccccc2)C1 [Compound C, 1-[(7S)-7-hydroxy-5,6,7,8-tetrahydronaphthalen-1-yl]-3-[(1R,3S)-3-phenylcyclopentyl]urea, reference compound]"
2,–,13,"O=C(Nc1cccc2c1C[C@@H](O)CC2)N[C@H]1CC[C@H](c2ccccc2)C1 [Compound D, 1-[(7S)-7-hydroxy-5,6,7,8-tetrahydronaphthalen-1-yl]-3-[(1S,3S)-3-phenylcyclopentyl]urea, reference compound]"
1,–,5,"O=C(Nc1cccc2c1C[C@H](O)CC2)N[C@@H]1CC[C@@H](c2ccccc2)C1 [Compound E, 1-[(7R)-7-hydroxy-5,6,7,8-tetrahydronaphthalen-1-yl]-3-[(1R,3R)-3-phenylcyclopentyl]urea, reference compound]"
6,–,5,"O=C(Nc1cccc2c1C[C@@H](O)CC2)N[C@@H]1CC[C@@H](c2ccccc2)C1 [Compound F, 1-[(7S)-7-hydroxy-5,6,7,8-tetrahydronaphthalen-1-yl]-3-[(1R,3R)-3-phenylcyclopentyl]urea, reference compound]"
1,–,–,"O=C(Nc1cccc2[nH]ncc12)N[C@@H]1CCC(c2nc(C(F)(F)F)cs2)C1 (stereo partly drawn) [Example 131, 1-(1H-indazol-4-yl)-3-{(1R)-3-[4-(trifluoromethyl)-1,3-thiazol-2-yl]cyclopentyl}urea]"

# Source: patent publication US8802711B2, “TRPV1 antagonists” (AbbVie Inc., priority 2011, dated 2014)
